Results reported in patent publication EP0938471B1, “THE PREPARATION AND USE OF ORTHO-SULFONAMIDO ARYL HYDROXAMIC ACIDS AS MATRIX METALLOPROTEINASE AND TACE INHIBITORS” (priority 1996, dated 1998).
Counter-ions that a name gives are not always drawn. Like-named read-outs stand apart in the source and are kept apart here.

Experiments:
Format in all cases: biochemical
MMP-1 = biological target: T1, MMP-1 (Homo sapiens, UniProt P03956); test: MMP-1 inhibition (thiopeptide or fluorescent peptide substrate assay); conditions: for MMP-1 % inhibition: concentration given as (10), unit not given; for inhibition at 1 µM: read-out: MMP-1 % inhibition, footnote: 1µM
T1 sequence (P03956 100-469): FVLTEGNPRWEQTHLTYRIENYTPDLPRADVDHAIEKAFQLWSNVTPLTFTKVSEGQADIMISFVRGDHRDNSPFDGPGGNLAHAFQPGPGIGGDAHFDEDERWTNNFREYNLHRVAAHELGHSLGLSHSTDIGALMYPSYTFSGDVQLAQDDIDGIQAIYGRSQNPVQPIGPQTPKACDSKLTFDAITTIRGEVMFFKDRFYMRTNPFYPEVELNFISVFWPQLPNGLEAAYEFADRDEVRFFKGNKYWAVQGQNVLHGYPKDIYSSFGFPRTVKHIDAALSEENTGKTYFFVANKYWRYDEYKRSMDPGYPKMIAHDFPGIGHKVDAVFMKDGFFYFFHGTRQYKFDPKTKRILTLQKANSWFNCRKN

MMP-9 = MMP-9 (Homo sapiens, UniProt P14780); test: MMP-9 inhibition (thiopeptide or fluorescent peptide substrate assay); conditions: for inhibition at 1 µM: read-out: MMP-9 % inhibition, footnote: 1µM
MMP-13 = MMP-13 (Homo sapiens, UniProt P45452); test: MMP-13 inhibition (thiopeptide or fluorescent peptide substrate assay); conditions: for inhibition at 1 µM: read-out: MMP-13 % inhibition, footnote: 1µM; for MMP-13 % inhibition: concentration given as (.1), unit not given
TACE = TACE (Homo sapiens, UniProt P78536); test: TACE inhibition (fluorescent peptidyl substrate); conditions: for inhibition at 1 µM: at 1µM concentration
Sequence of TACE (P78536 215-824): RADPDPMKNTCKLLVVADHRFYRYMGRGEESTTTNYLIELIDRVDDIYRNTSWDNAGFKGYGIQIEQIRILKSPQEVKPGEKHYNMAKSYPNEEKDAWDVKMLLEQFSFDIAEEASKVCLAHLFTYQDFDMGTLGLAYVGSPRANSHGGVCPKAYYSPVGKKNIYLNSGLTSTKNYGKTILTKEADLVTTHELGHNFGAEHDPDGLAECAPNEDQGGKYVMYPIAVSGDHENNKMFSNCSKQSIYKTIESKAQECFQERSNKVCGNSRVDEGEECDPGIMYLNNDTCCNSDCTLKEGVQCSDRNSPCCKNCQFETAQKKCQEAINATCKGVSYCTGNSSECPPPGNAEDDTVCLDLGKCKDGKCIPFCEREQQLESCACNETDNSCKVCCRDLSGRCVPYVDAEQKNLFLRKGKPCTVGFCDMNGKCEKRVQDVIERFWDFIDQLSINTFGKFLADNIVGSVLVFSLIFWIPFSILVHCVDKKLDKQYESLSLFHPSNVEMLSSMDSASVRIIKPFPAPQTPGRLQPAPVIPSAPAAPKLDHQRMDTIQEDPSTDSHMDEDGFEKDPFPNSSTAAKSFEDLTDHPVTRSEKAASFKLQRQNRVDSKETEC

Sequence of MMP-9 (P14780 94-707): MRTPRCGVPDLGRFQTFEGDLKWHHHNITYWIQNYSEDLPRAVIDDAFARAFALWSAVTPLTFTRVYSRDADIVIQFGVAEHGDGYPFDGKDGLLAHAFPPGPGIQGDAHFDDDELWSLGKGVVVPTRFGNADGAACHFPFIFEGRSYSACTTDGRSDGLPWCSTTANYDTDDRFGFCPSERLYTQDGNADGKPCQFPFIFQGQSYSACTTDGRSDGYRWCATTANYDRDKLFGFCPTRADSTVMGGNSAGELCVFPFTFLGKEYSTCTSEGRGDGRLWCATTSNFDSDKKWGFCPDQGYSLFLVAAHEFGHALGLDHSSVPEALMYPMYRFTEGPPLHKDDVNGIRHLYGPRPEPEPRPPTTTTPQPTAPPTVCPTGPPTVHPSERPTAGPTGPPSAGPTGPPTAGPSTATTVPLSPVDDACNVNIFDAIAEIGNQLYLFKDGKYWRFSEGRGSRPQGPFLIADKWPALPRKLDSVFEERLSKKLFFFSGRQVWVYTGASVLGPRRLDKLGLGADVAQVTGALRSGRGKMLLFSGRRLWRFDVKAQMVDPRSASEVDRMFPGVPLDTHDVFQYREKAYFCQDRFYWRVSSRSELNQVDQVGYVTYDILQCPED

Compound	IC50 (MMP-1; read-out: MMP-1 IC50) [nM]	IC50 (MMP-9; read-out: MMP-9 IC50) [nM]	IC50 (MMP-13; read-out: MMP-13 IC50) [nM]	IC50 (TACE; read-out: TACE IC50) [nM]	inhibition at 1 µM (TACE) [%]	other results
COc1ccc(S(=O)(=O)N(Cc2ccccc2)c2c(Br)cccc2C(=O)NO)cc1 [Example 201, 3-Bromo-2-[benzyl-(4-methoxybenzenesulfonyl)amino]-N-hydroxy-benzamide]	104	11	27	1000		
CCN(CC)CCOc1ccc(CN(c2c(C)cccc2C(=O)NO)S(=O)(=O)c2ccc(OC)cc2)cc1 [Example 394, 2-[[4-(2-Diethylamino-ethoxy)-benzyl]-(4-methoxy-benzenesulfonyl)-amino]-N-hydroxy-3-methyl-benzamide]	96	2.3	8.8	215		
COc1ccc(S(=O)(=O)N(Cc2ccccc2)c2c(OC(C)(C)C(=O)NO)cccc2C(=O)NO)cc1 [Example 197]	711	5	6		32	
CCN(C(=O)C=Cc1cc(C)c(N(Cc2cccnc2)S(=O)(=O)c2ccc(OC)cc2)c(C(=O)NO)c1)c1ccccc1 [Example 230, 5-[2-(Ethyl-phenyl-carbamoyl)-vinyl]-N-hydroxy-2-[(4-methoxy-benzenesulfonyl)-pyridin-3-ylmethyl-amino]-3-methyl-benzamide]	20	2.4	1.9		47	
COc1ccc(S(=O)(=O)N(Cc2cccnc2)c2c(C)cc(-c3cccc(C=NO)c3)cc2C(=O)NO)cc1 [Example 246, 3'-(Hydroxyimino-methyl)-4-[(4-methoxy-benzenesulfonyl)-pyridin-3-ylmethyl-amino]-5-methyl-biphenyl-3-carboxylic acid hydroxyamide]	106	6	3.6	56		
COc1ccc(S(=O)(=O)N(Cc2cccnc2)c2c(C)cc(-c3cc4ccccc4s3)cc2C(=O)NO)cc1 [Example 402, 5-Benzo[b]thiophen-2-yl-N-hydroxy-2-[(4-methoxy-benzenesulfonyl)-pyridin-3-ylmethyl-amino]-3-methyl-benzamide hydrochloride salt]	543	2.6	8.5	639		
COc1ccc(-c2ccc(S(=O)(=O)N(Cc3cccnc3)c3c(C)cccc3C(=O)NO)cc2)c(OC)c1 [Example 411, 2-[(2',4'-Dimethoxy-biphenyl-4-sulfonyl)-pyridin-3-ylmethyl-amino]-N-hydroxy-3-methyl-benzamide]					9	MMP-1 % inhibition (MMP-1): 32%(10); inhibition at 1 µM (MMP-9): 39%; inhibition at 1 µM (MMP-13): 44%
COc1ccc(S(=O)(=O)N(Cc2cccnc2)c2c(Br)cc(C)cc2C(=O)NO)cc1 [Example 138, 3-Bromo-N-hydroxy-2-[(4-methoxy-benzenesulfonyl)-pyridin-3-ylmethyl-amino]-5-methyl-benzamide]	258	77	57	215		
CCCCCCCCN(C)C(=O)C=Cc1cc(C)c(N(Cc2cccnc2)S(=O)(=O)c2ccc(OC)cc2)c(C(=O)NO)c1 [Example 224, N-Hydroxy-2-[(4-methoxy-benzenesulfonyl)-pyridin-3-ylmethyl-amino]-3-methyl-5-[2-(methyl-octyl-carbamoyl)-vinyl]-benzamide]	957	11	14	715		
COc1ccc(S(=O)(=O)N(Cc2ccccn2)c2c(C)cccc2C(=O)NO)cc1 [Example 375, N-Hydroxy-2-[(4-methoxy-benzenesulfonyl)-pyridin-2-ylmethyl-amino]-3-methyl-benzamide]	329	7.1	18	356		
COc1ccc(S(=O)(=O)N(C)c2c(CCC(=O)NO)cc(Br)cc2C(=O)NO)cc1 [Example 349, 5-Bromo-N-hydroxy-3-[2-(hydroxycarbamoyl)-ethyl]-2-[(4-methoxy-benzenesulfonyl)-methyl-amino]-benzamide]	396	8	9	32		
CCCCCCCCN(C)C(=O)C=Cc1cc(C)c(N(C)S(=O)(=O)c2ccc(OC)cc2)c(C(=O)NO)c1 [Example 207, N-Hydroxy-2-[(4-methoxy-benzenesulfonyl)-methyl-amino]-3-methyl-5-[2-(methyl-octyl-carbamoyl)-vinyl]-benzamide]	1120	2	2.5	375		
COc1ccc(S(=O)(=O)N(C)c2c(C)cc(C)cc2C(=O)NO)cc1 [Example 130, N-Hydroxy-2-[(4-methoxy-benzenesulfonyl)-methyl-amino]-3,5-dimethyl-benzamide]	213	4	13	76		
COc1ccc(S(=O)(=O)N(C)c2c(C)cc(CCc3ccc(-c4ccccc4)cc3)cc2C(=O)NO)cc1 [Example 355, 5-(2-Biphenyl-4-yl-ethyl)-N-hydroxy-2-[(4-methoxy-benzenesulfonyl)-methyl-amino]-3-methyl-benzamide]	701	28	20	288		
COc1ccc(S(=O)(=O)N(C)c2c(CN3CCCC3)cc(Br)cc2C(=O)NO)cc1 [Example 314, 5-Bromo-N-hydroxy-2-[(4-methoxy-benzenesulfonyl)-methylamino]-3-pyrrolidin-1-ylmethyl-benzamide]	954	8.4	13	27		
COc1ccc(S(=O)(=O)N(C)c2c(C)cc(C=CC(=O)N(C)C)cc2C(=O)O)cc1 [Example 214, 5-(2-Dimethylcarbamoyl-vinyl)-2-[(4-methoxy-benzenesulfonyl)-methyl-amino]-3-methyl-benzoic acid]						IC50 (MMP-1): 423 nM; IC50 (MMP-9): 6.4 nM; IC50 (MMP-13): 19 nM; IC50 (TACE): 232 nM
Cc1cccc(C(=O)NO)c1N(Cc1cccnc1)S(=O)(=O)c1ccc(-c2ccc(C(F)(F)F)cc2)cc1 [Example 410, N-Hydroxy-3-methyl-2-[pyridin-3-ylmethyl-(4'-trifluoromethyl-biphenyl-4-sulfonyl)-amino]-benzamide]					2	MMP-1 % inhibition (MMP-1): 47%(10); inhibition at 1 µM (MMP-9): 28%; MMP-13 % inhibition (MMP-13): 40%(.1)
COc1ccc(S(=O)(=O)N(Cc2cccnc2)c2c(C)cc(-c3ccc(Cl)s3)cc2C(=O)NO)cc1 [Example 261, 5-(5-Chloro-thiophen-2-yl)-N-hydroxy-2-[(4-methoxy-benzenesulfonyl)-pyridin-3-ylmethyl-amino]-3-methyl-benzamide]	247	1.3	2.8	54		
COc1ccc(S(=O)(=O)N(C)c2c(CN3CCOCC3)cccc2C(=O)NO)cc1 [Example 309, N-Hydroxy-2-[(4-methoxy-benzenesulfonyl)-methyl-amino]-3-morpholin-4-ylmethyl-benzamide]	608	5				IC50 (MMP-13): 14 nM; IC50 (TACE): 174 nM
COc1ccc(S(=O)(=O)N(CCO)c2c(C)cccc2C(=O)NO)cc1 [Example 388, N-Hydroxy-2-[(2-hydroxy-ethyl)-(4-methoxy-benzenesulfonyl)-amino]-3-methyl-benzamide]					35	MMP-1 % inhibition (MMP-1): 66%(10); inhibition at 1 µM (MMP-9): 47%; inhibition at 1 µM (MMP-13): 39%
COc1ccc(S(=O)(=O)N(Cc2cccnc2)c2c(COC3CCCCO3)cccc2C(=O)NO)cc1 (stereo not shown) [Example 339, N-Hydroxy-2-[(4-methoxy-benzenesulfonyl)-pyridin-3-ylmethyl-amino]-3-(tetrahydro-pyran-2-yloxymethyl)-benzamide]	216	5.2	5.7	564		
Cc1cccc(C(=O)NO)c1N(Cc1cccnc1)S(=O)(=O)c1ccc(-c2cccs2)cc1 [Example 412, N-Hydroxy-3-methyl-2-[pyridin-3-ylmethyl-(4-thiophen-2-yl-benzenesulfonyl)-amino]-benzamide]					3	MMP-1 % inhibition (MMP-1): 69%(10); inhibition at 1 µM (MMP-9): 44%; MMP-13 % inhibition (MMP-13): 42%(.1)
CCCCCCCCN(c1c(CN2CCN(C)CC2)cccc1C(=O)NO)S(=O)(=O)c1ccc(OC)cc1 [Example 325, N-Hydroxy-2-[(4-methoxy-benzenesulfonyl)-octyl-amino]-3-(4-methyl-piperazin-1-ylmethyl)-benzamide]		2.4	1.9	1640	47	inhibition at 1 µM (MMP-1): 15%; inhibition at 1 µM (MMP-9): 49%; inhibition at 1 µM (MMP-13): 60%
COc1ccc(S(=O)(=O)N(CC(=O)NCc2ccccn2)c2c(C)cccc2C(=O)NO)cc1 [Example 386, N-Hydroxy-2-[[(4-methoxyphenyl)sulfonyl][2-oxo-2-[(2-pyridinylmethyl)amino]ethyl]amino]-3-methylbenzamide]					46	inhibition at 1 µM (MMP-1): 21%; MMP-9 % inhibition (MMP-9; concentration given as (.1), unit not given): 16%(.1); MMP-13 % inhibition (MMP-13): 11%(.1)
COc1ccc(S(=O)(=O)N(Cc2ccc(CN(C)C)cc2)c2c(C)cccc2C(=O)NO)cc1 [Example 378, 2-[(4-Dimethylaminomethyl-benzyl)-(4-methoxy-benzenesulfonyl)-amino]-N-hydroxy-3-methyl-benzamide]	213	2.9	11	243		
